Results published in patent US20190248834A1, “ENDOMORPHIN-2, TETRAPEPTIDE DERIVATIVES THEREOF, AND USES THEREOF” (priority 2016, published 2019).
Non-standard residues stand in square brackets, D forms with d. pGlu = O=C1CC[C@@H](C(=O)O)N1

Legend:
Format in all cases: in vivo, human
psoriatic arthritis = experiment: Example 73: analgesic effect on psoriatic arthritis of hands, fingers and ankles, topical; conditions: 0.5% (w/v) in WEP442, topical
From the text: A subject had psoriatic arthritis of the hands and finger joints and ankle joints for 4 years.

[1] = test system: psoriatic arthritis of fingers; experiment: Example 19: analgesic effect on psoriatic arthritis of fingers, topical
Experimental: A subject had extensive plaque psoriasis and painful arthritis of the interphalangeal joints of both index fingers, left thumb and left 5th finger. The pain was compromising their work performance as an esthetician. […] Pain relief lasted for about 6 hours.

[2] = test system: knee pain, lateral meniscus; experiment: Example 58: analgesic effect on knee pain due to injured lateral meniscus, topical; conditions: 1% (w/v) in WEP442, topical
From the text: A subject had knee pain at the site of the lateral meniscus of the right knee, secondary to repeated trauma in the course of their work as a house builder. They evaluated two (2) tetrapeptide derivatives for efficacy in relieving this pain, including N-Ac-Tyr-Pro-Phe-Phe-NH2 (SEQ ID NO: 23) and N-Pg-Tyr-Pro-Phe-Phe-NH2 (SEQ ID NO: 44), both as a 1% (w/v) solution composition in WEP442. One solution composition was topically applied during the course of a day; and the other solution composition was topically applied during the course of the following day. The evaluation continued over a period of 8 days in this schedule.

[3] = test system: psoriatic arthritis pain, fingers and wrists; experiment: Example 48: comparative analgesic efficacy, psoriatic arthritis pain of fingers and wrists, topical; conditions: 1% (w/v) in WEP442, topical
From the text: […] Treatment of the subject over the years included methotrexate and other antimetabolites, and in recent years drugs known as biologic medications. While these agents have provided intervals of relief, none has provided a lasting benefit. Over the past decade, painful arthritis developed in both wrists and in numerous joints of the fingers. Four related tetrapeptide derivatives, 1% (w/v) solution compositions in vehicle WEP442, one at a time, were topically applied to the fingers and wrists of both hands. […] Efficacy was rated by the subject as 4+. • (B) N-Ac-Tyr-Pro-Phe-Phe-NHNH2 (SEQ ID NO: 31) provided slow relief of pain, i.e. within about 10 minutes. […] Analgesic efficacy was judged by the subject to be 0 to 1+.

hangover headache = experiment: Example 74: analgesic effect on severe hangover headache, topical; conditions: 0.5% (w/v) in WEP442, topical
From the text: They were provided a solution composition containing 0.5% (w/v) of N-Ac-Tyr-Pro-Phe-Phe-NH2 (SEQ ID NO: 23) in WEP442 which they topically applied to the neck, peripheral scalp, and entire face and forehead.

hallux valgus (bunion) = experiment: Example 26: analgesic effect on painful inflammation of hallux valgus, topical
From the text: A subject had hallux valgus of the right 1st metatarsal-proximal phalangeal joint for a duration of 5-6 years. Pain in the joint was episodic and associated with inflammation. […] A second application of the solution was made that evening, even though there was no pain. […] Such improvement lasted over the next 2 weeks.

[4] = test system: severe arthritis of the left hip; experiment: Example 18: analgesic effect on arthritic hip, topical
Experimental: A subject had severe arthritis of the left hip with pain and inflammation for 6 months.
The subject topically applied a composition containing 0.7% (w/v) N-Ac-Tyr-Pro-Phe-Phe-NH2 (SEQ ID NO: 23) in WEP442 to the left hip and covered the hip with plastic wrap overnight. The pain reduced about 50% in 8 hours. The samen procedure was repeated the following day. […] The analgesic effect observed was 100% improvement as judged by clinical evaluation.

severe headache = experiment: Example 59: analgesic effect on headache of acupuncturist, topical; conditions: 0.6% (w/v) in WEP442, topical
From the text: A person acupuncturist, on a day while practicing their specialty, developed a severe headache that was not relieved by administering acupuncture procedures themself.

[5] = test system: pain in the muscles of the neck; experiment: Example 57: analgesic effect on stress pain in muscles of the neck, topical; conditions: 0.6% (w/v) in WEP442, topical
Experimental: A farmer suffered substantial pain in the muscles of their neck the day after ploughing a field for several hours. During that time, they had almost constantly strained their neck muscles looking backward to monitor the performance of the plough behind. The pain was such that it disabled them from turning their head even slightly. […] Reapplication of the solution at that time again relieved the pain for another 4 hours. With repeated applications, they were able to perform usual farm maintenance work for the entire day. After a night's rest, the pain subsided spontaneously.

migraine = experiment: Example 80: analgesic effect on pain and nausea from migraine headache, topical; conditions: 0.5% (w/v) in WEP442, topical at onset of symptoms
From the text: A subject with a history of recurrent attacks of migraine, was provided a solution composition containing 0.5% (w/v) of N-Pg-Tyr-Pro-Phe-Phe-NH2 (SEQ ID NO: 44) in WEP442 and a solution composition containing 0.5% (w/v) of N-Ac-Tyr-Pro-Phe-Phe-NHNH2 (SEQ ID NO: 31) in WEP442. […] Sensations of nausea that might have lingered went away after several minutes following a second topical application.

headache = experiment: Example 52: analgesic effect on headache; conditions: 1% (w/v) in WEP442, topical
From the text: At 5:30 p.m., the headache pain was becoming more intense, at which time they topically applied a composition containing 1% (w/v) of N-Pg-Tyr-Pro-Phe-Phe-NH2 (SEQ ID NO: 44) in WEP442 to the entire forehead and temporal areas. […] There was no recurrence of symptoms over the next 3 days of follow-up time.

knee pain and foot pain = experiment: Example 71: analgesic effect on foot sprain and knee pain following patella fracture, topical; conditions: 0.5% (w/v) in WEP442, topical
From the text: A subject suffered severe pain in their left knee and in the arch of their left foot following a forward fall to a wooden floor. Diagnoses of multiple fractures of the patella and a bruised foot were made by x-ray. Surgical repair of the knee was done, following which severe knee pain and acute pain in the arch of the foot persisted. […] Topical applications 3-4 times daily allowed the subject to pursue rehabilitation procedures pain free.

CC(=O)N[C@@H](Cc1ccc(O)cc1)C(=O)N1CCC[C@H]1C(=O)N[C@@H](Cc1ccccc1)C(=O)N[C@@H](Cc1ccccc1)C(N)=O [N-Ac-Tyr-Pro-Phe-Phe-NH2]
duration of pain relief (psoriatic arthritis): approximately 6 hours | pain relief (psoriatic arthritis): almost complete relief of pain | duration of pain relief ([1]; 1% (w/v) in WEP442, topical): about 6 hours | time to pain relief ([1]; 1% (w/v) in WEP442, topical): ≤ 30 s | pain relief ([1]; 1% (w/v) in WEP442, topical each day for one month): all arthritic pain of the finger was gone | duration of pain relief [2]: about 4 hours | pain relief [2]: complete relief of pain | pain relief [3]: rapid complete relief of pain | headache relief (hangover headache): almost immediate, complete, relief of their aching head | erythema, swelling and pain (hallux valgus (bunion); 1% (w/v) in WEP442, morning after second application): the erythema was gone, the swelling had subsided, and there was no pain | duration of improvement (hallux valgus (bunion); 1% (w/v) in WEP442, topical): 2 weeks | pain relief (hallux valgus (bunion); 1% (w/v) in WEP442, topical): all pain was gone | time to pain relief (hallux valgus (bunion); 1% (w/v) in WEP442, topical): ≤ 15 min | improvement by clinical evaluation ([4]; 0.7% (w/v) in WEP442, procedure repeated the following day, another 8 hours): 100% | pain reduction ([4]; 0.7% (w/v) in WEP442, under plastic wrap overnight, in 8 hours): about 50%

N-Pg-Tyr-Pro-Phe-Phe-NH2 ([pGlu]YPFF-NH2; SMILES NC(=O)[C@H](Cc1ccccc1)NC(=O)[C@H](Cc1ccccc1)NC(=O)[C@@H]1CCCN1C(=O)[C@H](Cc1ccc(O)cc1)NC(=O)[C@@H]1CCC(=O)N1)
pain relief (severe headache): completely relieved their headache | time to pain relief (severe headache): ≤ 2 min | duration of pain relief [5]: about 4 hours | pain relief [5]: almost completely relieved | duration of pain relief [2]: about 4 hours | pain relief [2]: complete relief of pain | pain relief [3]: rapid relief of pain | pain relief (migraine): complete relief of pain | pain relief (headache): all pain, and heavy feelings were completely gone | time to pain relief (headache): ≤ 30 s | time without recurrence of symptoms (follow-up) (headache): ≥ 3 days | duration of pain relief (knee pain and foot pain): more than 6 hours | pain relief (knee pain and foot pain): immediate and complete relief of knee pain and foot pain
